This note sets out measurements from publication PMC5602572, “New carboxamide derivatives bearing benzenesulphonamide as a selective COX-II inhibitor: Design, synthesis and structure-activity relationship” (PLoS ONE, 2017).

The test system of data set [1] is carrageenan induced rat paw edema. Briefly: carrageenan-induced rat paw edema bioassay. The conditions noted are these: % inhibition of carrageenan induced rat paw edema, intraperitoneal; for Anti-inflammatory activity, 0.5 h (%): 0.5 h after treatment; for Anti-inflammatory activity, 1 h (%): 1 h after treatment; for Anti-inflammatory activity, 2 h (%): 2 h after treatment; for Anti-inflammatory activity, 3 h (%): 3 h after treatment. Format: in vivo. As to the method:
Male albino rats weighing 300 g where purchased from the Department of Zoology and Environmental Biology, University of Nigeria, Nsukka and kept at room temperature in a light controlled animal house. They were fasted with free access to water at least 12 h prior to the experiments. […] The positive control received celecoxib while the negative control received only the vehicle. Edema was produced by injecting 0.2 mL of a solution of 1% carrageenan in the hind paw. The rats were injected intraperitoneally with 1 mL suspension in 0.5% methylcellulose of the tested compounds and reference drug. Paw volume was measured by water displacement with a plethysmometer (UGO BASILE) before, 30 min, 1 h, 2 h and 3 h after treatment. The percentage was calculated by the following equation [25].
Anti-inflammatory activity (%) = (1-D/C)[…], where D represents the difference in paw volume before and after drug administration to the rats and C represents the difference of volume in the control groups. The approval for the use of animal was obtained from the University of Nigeria committee on experimental animal use. No sign of death was observed during the experiment.
Background: In the carrageenan paw model, swelling and tenderness develop within hours.

Data set [2] can be described thus: Determination of LD50 in mice. Conditions: mouse, in vivo, ip; male mice, intraperitoneal, observation 72 h. As to the method: Male mice were divided into various groups and test compounds were administered in various doses intraperitoneally. […] All behavioral changes and deaths during the observation periods were recorded. The percentage of death at each dose level was then calculated, converted to probits and the LD50 (μM/kg) values were calculated. To observe the health status of the mice, they were monitored 4 times a day. […] For the purpose of ameliorating the suffering of the dying mice, CO2 euthanasia was applied. All the dead mice were disposed in bio-safety containers in accordance with local standard protocols. The mortality rate in each group was calculated according to the formula: Mortality rate(%)=(the number of dead mice/the number of mice in the group)×100.

The next data set has as its target T1, COX-1 (Ovis aries, UniProt P05979).
T1 construct: purchased Cayman chemicals, USA
T1 sequence (P05979 25-600): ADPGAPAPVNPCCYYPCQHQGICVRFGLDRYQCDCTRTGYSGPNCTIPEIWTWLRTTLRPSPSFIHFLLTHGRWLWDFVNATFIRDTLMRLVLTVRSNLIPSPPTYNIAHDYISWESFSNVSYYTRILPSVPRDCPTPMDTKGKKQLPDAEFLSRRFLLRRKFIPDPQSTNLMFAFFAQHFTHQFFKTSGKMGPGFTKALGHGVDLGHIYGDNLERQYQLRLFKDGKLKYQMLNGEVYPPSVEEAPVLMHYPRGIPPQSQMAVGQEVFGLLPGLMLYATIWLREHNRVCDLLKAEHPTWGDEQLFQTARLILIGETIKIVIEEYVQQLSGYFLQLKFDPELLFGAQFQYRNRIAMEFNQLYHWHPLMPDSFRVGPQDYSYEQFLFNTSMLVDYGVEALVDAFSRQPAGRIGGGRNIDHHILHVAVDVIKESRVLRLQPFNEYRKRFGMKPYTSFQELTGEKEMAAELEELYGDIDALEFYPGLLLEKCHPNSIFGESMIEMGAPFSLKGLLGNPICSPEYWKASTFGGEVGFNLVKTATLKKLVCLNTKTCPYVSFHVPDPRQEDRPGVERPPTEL
As to the kind of experiment: In vitro cyclooxygenase inhibitory assay (Cayman colorimetric COX (ovine) inhibitor screening kit), COX-1. Format: biochemical. The conditions noted are these: read-out: COX-1 (%) inhibition. As to the method: (§1) The calculations were performed as per the kit guidelines.

A further data set deals with T2, COX-2 (Ovis aries, UniProt P79208).
T2 construct: purchased Cayman chemicals, USA
T2 sequence (P79208 17-603): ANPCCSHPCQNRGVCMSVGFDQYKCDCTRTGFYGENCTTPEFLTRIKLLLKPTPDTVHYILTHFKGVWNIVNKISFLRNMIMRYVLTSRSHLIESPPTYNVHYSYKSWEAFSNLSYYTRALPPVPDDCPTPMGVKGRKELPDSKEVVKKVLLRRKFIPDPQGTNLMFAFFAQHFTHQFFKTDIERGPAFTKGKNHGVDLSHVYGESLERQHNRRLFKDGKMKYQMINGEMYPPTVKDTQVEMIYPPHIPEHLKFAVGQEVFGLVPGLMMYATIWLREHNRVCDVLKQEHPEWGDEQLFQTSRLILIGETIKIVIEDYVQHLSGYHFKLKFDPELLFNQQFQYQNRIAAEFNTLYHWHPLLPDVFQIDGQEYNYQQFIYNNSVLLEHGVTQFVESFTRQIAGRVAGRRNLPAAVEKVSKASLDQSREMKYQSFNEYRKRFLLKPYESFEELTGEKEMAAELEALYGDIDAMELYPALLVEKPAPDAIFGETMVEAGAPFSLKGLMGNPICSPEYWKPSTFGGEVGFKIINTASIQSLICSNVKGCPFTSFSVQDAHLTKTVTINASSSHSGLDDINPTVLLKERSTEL
Briefly: In vitro cyclooxygenase inhibitory assay (Cayman colorimetric COX (ovine) inhibitor screening kit), COX-2. The format is biochemical. The conditions noted are these: for inhibition at 2 µM: read-out: COX-2 (%) inhibition; for S I (selectivity COX-2/COX-1): ratio of % inhibition COX-2/COX-1 at 2.0 μM; for selectivity for COX-2 (in words): from COX-2/COX-1 % inhibition at 2.0 μM. As to the method: as §1

Like-named read-outs stand apart in the source and are kept apart here.

For orientation: LD50 means the dose at which mortality reaches 50%. Lower therefore signals greater toxicity. Usually inhibition stands for the drop in the measured response relative to a control, in per cent. With `Cc1ccc(S(=O)(=O)N(C(=O)c2ccccc2)[C@@H](Cc2ccccc2)C(=O)Nc2cc(C)ccn2)cc1` [Compound 7j, (2S)-2-[N-(4-methylbenzenesulfonyl)-1-phenylformamido]-N-(4-methylpyridin-2-yl)-3-phenyl propanamide], in data set [1], the “Anti-inflammatory activity, 0.5 h (%)” value is 41.54%; the “Anti-inflammatory activity, 1 h (%)” value was determined as 40.59%; the “Anti-inflammatory activity, 2 h (%)” value was determined as 39.84%; the “Anti-inflammatory activity, 3 h (%)” value was 36.42%. For the same molecule, the LD50 at 72 h in data set [2] was 17.6 µmol/kg. On COX-1 (concentration of 2.0 μM), the inhibition at 2 µM turned out to be 10%. The inhibition at 2 µM on COX-2 (concentration of 2.0 μM) turned out to be 30%. Further, the “S I (selectivity COX-2/COX-1)” value at COX-2 came to 3.00.
Regarding `Cc1ccc(S(=O)(=O)N(C(=O)c2ccccc2)[C@@H](Cc2cc3ccccc3[nH]2)C(=O)Nc2cc(C)ccn2)cc1` [Compound 7k, (2S)-3-(1H-indol-2-yl)-2-[N-(4-methylbenzenesulfonyl)-1-phenylformamido]-N-(4-methylpyridin-2-yl)propanamide], in data set [1], the “Anti-inflammatory activity, 0.5 h (%)” value is 42.12%; the “Anti-inflammatory activity, 1 h (%)” value is recorded as 56.12%; the “Anti-inflammatory activity, 2 h (%)” value is given as 70.89%. In data set [2], this molecule registered an LD50 at 72 h of 9.2 µmol/kg. Moreover, on COX-1 (concentration of 2.0 μM), the inhibition at 2 µM came to 3%. The inhibition at 2 µM on COX-2 (concentration of 2.0 μM) is 56%. For the same molecule, the “S I (selectivity COX-2/COX-1)” value on COX-2 is listed as 18.67.
Regarding `Cc1ccc(S(=O)(=O)N(C(=O)c2ccccc2)[C@@H](CC(C)C)C(=O)Nc2cc(C)ccn2)cc1` [Compound 7l, (2S)-4-Methyl-2-[N-(4-methylbenzenesulfonyl)-1-phenylformamido]-N-(4-methylpyridin-2-yl) pentanamide], in data set [1], the “Anti-inflammatory activity, 0.5 h (%)” value is 26.15%; the “Anti-inflammatory activity, 1 h (%)” value was 19.88%; the “Anti-inflammatory activity, 2 h (%)” value is recorded as 18.28%; the “Anti-inflammatory activity, 3 h (%)” value is on record as 16.67%. For the same molecule, the median lethal dose (LD50) at 72 h in data set [2] amounted to 12.5 µmol/kg. Moreover, the inhibition at 2 µM at COX-1 (concentration of 2.0 μM) came to 20%. Also, on COX-2 (concentration of 2.0 μM), the inhibition at 2 µM is 19%. On COX-2, the “selectivity for COX-2 (in words)” value is reported as “non-selective” and the “S I (selectivity COX-2/COX-1)” value is given as 0.95.
As for `CCC(C)[C@@H](C(=O)Nc1cc(C)ccn1)N(C(=O)c1ccccc1)S(=O)(=O)c1ccc(C)cc1` (stereo partly drawn) [Compound 7m, (2S)-3-Methyl-2-[N-(4-methylbenzenesulfonyl)-1-phenylformamido]-N-(4-methylpyridin-2-yl) pentanamide], in data set [1], the “Anti-inflammatory activity, 0.5 h (%)” value is given as 13.85%; the “Anti-inflammatory activity, 1 h (%)” value came out at 12.35%; the “Anti-inflammatory activity, 2 h (%)” value stood at 8.59%; the “Anti-inflammatory activity, 3 h (%)” value worked out at 8.58%. Also, in data set [2], the 50% lethal dose (LD50) at 72 h stood at 11.9 µmol/kg. Also, the inhibition at 2 µM on COX-1 (concentration of 2.0 μM) was found to be 17%. Moreover, the inhibition at 2 µM on COX-2 (concentration of 2.0 μM) turned out to be 25%. At COX-2, the “selectivity for COX-2 (in words)” value is reported as “non-selective” and the “S I (selectivity COX-2/COX-1)” value is listed as 1.47.
On to `Cc1ccc(S(=O)(=O)N(C(=O)c2ccccc2)[C@H](C(=O)Nc2cc(C)ccn2)C(C)C)cc1` [Compound 7n, (2S)-3-Methyl-2-[N-(4-methylbenzenesulfonyl)-1-phenylformamido]-N-(4-methylpyridin-2-yl) butanamide], for which, in data set [1], the “Anti-inflammatory activity, 0.5 h (%)” value is reported as 21.54%; the “Anti-inflammatory activity, 1 h (%)” value is given as 16.47%; the “Anti-inflammatory activity, 2 h (%)” value is given as 10.56%; the “Anti-inflammatory activity, 3 h (%)” value worked out at 3.09%. In addition, in data set [2], the median lethal dose (LD50) at 72 h came to 20.1 µmol/kg. Moreover, at COX-1 (concentration of 2.0 μM), the inhibition at 2 µM came out at 32%. Moreover, the inhibition at 2 µM at COX-2 (concentration of 2.0 μM) stood at 48%. On COX-2, the “selectivity for COX-2 (in words)” value is listed as “non-selective” and the “S I (selectivity COX-2/COX-1)” value was found to be 1.50.
`Cc1ccc(S(=O)(=O)N2CC(O)C[C@H]2C(=O)Nc2cc(C)ccn2)cc1` (stereo partly drawn) [Compound 7o, (2S)-4-Hydroxy-1-(4-methylbenzenesulfonyl)-N-(4-methylpyridin-2-yl)pyrrolidine-2-carboxamide]: in data set [1], the “Anti-inflammatory activity, 0.5 h (%)” value is listed as 21.54%; the “Anti-inflammatory activity, 1 h (%)” value came to 11.23%; the “Anti-inflammatory activity, 2 h (%)” value came out at 8.78%; the “Anti-inflammatory activity, 3 h (%)” value is reported as 5.56%. In data set [2], the LD50 at 72 h worked out at 10.1 µmol/kg. Besides, on COX-1, the inhibition at 2 µM came to 6%. The inhibition at 2 µM at COX-2 was found to be 18%.
Consider `Cc1ccc(S(=O)(=O)N2CCC[C@H]2C(=O)Nc2cc(C)ccn2)cc1` [Compound 7p, (2S)-1-(4-Methylbenzenesulfonyl)-N-(4-methylpyridin-2-yl)pyrrolidine-2-carboxamide], for which, in data set [1], the “Anti-inflammatory activity, 0.5 h (%)” value was determined as 29.15%; the “Anti-inflammatory activity, 1 h (%)” value came to 28.24%; the “Anti-inflammatory activity, 2 h (%)” value is 30.34%; the “Anti-inflammatory activity, 3 h (%)” value came to 33.26%. This molecule showed a 50% lethal dose (LD50) at 72 h in data set [2] of 9.9 µmol/kg. Also, the inhibition at 2 µM at COX-1 came out at 8%. For the same molecule, on COX-2, the inhibition at 2 µM is 20%.
